Laboratory results reported in US10039759B2, “Quinolines as FGFR kinase modulators” (priority 2011, dated 2018).

Legend:
[1] = system: Ba/F3-Flt3-transfected cells; experiment: Ba/F3-Flt3 (minus IL3 or plus IL3) cellular proliferation assay, Alamar Blue; assay type: cell-based; details: plus IL3 (10 ng/ml murine IL3, counterscreen), 24 hours
Experimental: Ba/F3-Flt3 (Minus IL3 or Plus IL3) (Cellular Proliferation Assay)
In a 384 well plate, 100 nl of compound dilution in DMSO was sprayed before adding 50 μl cell culture medium (phenol red free RPMI-1640, 10% FBS, 2 mM L-Glutamine and 50 μg/ml Gentamycin) containing 20000 cells per well of Ba/F3-Flt3-transfected cells. Cells were put in an incubator at 37° C. and 5% CO2. After 24 hours, 10 μl of Alamar Blue solution (0.5 mM K3Fe(CN)6, 0.5 mM K4Fe(CN)6, 0.15 mM Resazurin and 100 mM Phosphate Buffer) was added to the wells, incubated for 4 hours at 37° C. and 5% CO2 before RFU's (Relative Fluorescence Units) (ex. 540 nm., em. 590 nm.) were measured in a fluorescence plate reader.
In this assay, the inhibitory effect of different compound concentrations (range 10 μM to 0.1 nM) was determined and used to calculate an IC50 (M) and pIC50 (−log IC50) value. As a counterscreen the same experiment was performed in the presence of 10 ng/ml murine IL3.

[2] = system: Ba/F3-FGFR1-transfected cells; experiment: Ba/F3-FGFR1 (minus IL3 or plus IL3) cellular proliferation assay, Alamar Blue; assay type: cell-based; details: plus IL3 (10 ng/ml murine IL3, counterscreen), 24 hours
Summary of the method: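 Ba/F3-FGFR1 cells (20000/well) were treated with compound (10 μM–0.1 nM) for 24 h at 37 °C. Alamar Blue was then added for 4 h, with fluorescence read at ex 540/em 590 nm to give IC50/pIC50. A counterscreen was run with 10 ng/ml murine IL3.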

COc1cc(OC)cc(N(CC(O)C(F)(F)F)c2ccc3ncc(-c4cnn(C)c4)cc3c2)c1 (single isomer, unassigned) [Compound 25]
BAF3-FLT3 (PLUS IL3 Alamar Blue pIC50) [1]: <5 | BAF3-FGFR1 (PLUS IL3 pIC50) [2]: <5
